Data taken from patent publication US20240002332A1, “Small Molecule Inhibitors of SARS-CoV-2 Infections” (priority 2020, published 2024).
Where “and” joins values, the source holds several entries; their conditions need not be identical. Equal values may be shown once.

Legend:
[1] = Pharmacokinetics in mice IV 3 and PO 10 mg/kg; plasma, lung and liver; settings: mouse, in vivo, po, 10 mg/kg, Compound P3 dosed PO 10 mg/kg; for Kp: AUC ratio (tissue/plasma)
Vero-E6 = assay: Cytotoxicity counter screen (cell viability, CellTiter-Glo); format: cell-based
Procedure: Compound cytotoxicity was assessed in a BSL-2 counter screen as follows: Cell culture media (MEM, 1% Pen/Strep/GlutaMax, 1% HEPES, 2% HI FBS) was dispensed at 5 μl/well into ARPs and incubated at room temperature to allow for compound dissolution. Vero-E6 (selected for high ACE2 expression) was dispensed into assay plates at 4000 cells/well in 25 μl media. Assay plates were incubated for 72 h at 37 C, 5% CO2, 90% humidity. Then, 30 μl/well of CellTiter-Glo (Promega #G7573) was dispensed into the assay plate. Luminescence was read using a BMG PHERAstar plate reader following incubation at room temperature for 10 min to measure cell viability.

[2] = Pharmacokinetics in male hamsters, plasma and lung, IV 3 mg/kg or PO 30 mg/kg; settings: for Kp at 0.083 h / Kp at 4 h / Kp at 2 h / Kp at 8 h / Kp at 0.5 h / Kp at 1 h / Kp at […]: Ratio (Lung/Plasma)
Procedure: Compound P3 was administered intravenously (3 mg/kg dosing in 20% HP-β-CD in water) or orally (30 mg/kg dosing in 20% HP-β-CD in water).

[3] = system: SARS CoV-2 (USA_WA1/2020); assay: Cytopathic effect (CPE) assay; format: cell-based; settings: Severe acute respiratory syndrome coronavirus 2, Vero C1008, 72 h
[4] = Compound P3 IV 3 mg/kg, 0.083 h, individual animals, 3 mg/kg
[5] = Compound P3 IV 3 mg/kg, 4 h, individual animals, 3 mg/kg
[6] = Compound P3 IV 3 mg/kg, 8 h, individual animals, 3 mg/kg
[7] = Compound P3 IV 3 mg/kg, 24 h, individual animals, 3 mg/kg
[8] = Compound P3 PO 30 mg/kg, 0.5 h, individual animals, 30 mg/kg
[9] = Compound P3 PO 30 mg/kg, 1 h, individual animals, 30 mg/kg
[10] = Compound P3 PO 30 mg/kg, 2 h, individual animals, 30 mg/kg
[11] = Compound P3 PO 30 mg/kg, 4 h, individual animals, 30 mg/kg
[12] = Compound P3 PO 30 mg/kg, 8 h, individual animals, 30 mg/kg
[13] = Compound P3 intravenously or orally

SMILES: O=C(Nc1ccc([N+](=O)[O-])cc1Cl)c1cc(Cl)ccc1OC(=O)N1CCNCC1 [Compound P3, 4-chloro-2-((2-chloro-4-nitrophenyl)carbamoyl)phenyl piperazine-1-carboxylate]
- AUC(0-t) ([1]; AUC0-last, mice, Lung): 244000 ng·h/mL
- AUC(0-t) ([1]; AUC0-last, mice, Plasma): 3510 ng·h/mL
- Kp ([1]; mice, Liver): 0.19
- Kp ([1]; mice, Lung): 69
- AUC(0-t) ([1]; AUClast, mouse Plasma): 3510 ng·h/mL
- Cmax ([1]; mice, Liver): 240 ng/mL
- Cmax ([1]; mice, Lung): 44200 ng/mL
- half-life ([1]; t1/2, mice, Liver): 4 h
- half-life ([1]; t1/2, mice, Plasma): 2.2 h
- half-life ([1]; t½, mouse Plasma): 2.2 h
- IC50 (Vero-E6; Chlorocebus sabaeus, Vero C1008, 72 h, read-out: IC50 (μM) cell viability): 7.21 µM
- Efficacy cell viability (Vero-E6; uninfected Vero-E6, 72 h, CellTiter-Glo): −99.8
- Lung [2, 4]: 15360 ng/g and 23120 ng/g
- Ratio (Lung/Plasma) [2, 4]: 36.0 and 31.0
- Lung [2, 5]: 1436 ng/g and 2904 ng/g and 1800 ng/g
- Ratio (Lung/Plasma) [2, 5]: 111 and 59.4
- Lung [2, 6]: 263 ng/g and 275 ng/g
- Ratio (Lung/Plasma) [2, 6]: 45.3 and 76.3 and 109
- plasma concentration ([2]; Compound P3 IV 3 mg/kg, 24 h, individual animals): BLOQ
- Lung [2, 7]: 8.44 ng/g and 3.59 ng/g
- lung concentration, Conc. (ng/mL) [2, 7]: BLOQ
- Lung [2, 8]: 113200 ng/g and 72400 ng/g and 33400 ng/g
- Ratio (Lung/Plasma) [2, 8]: 53.2 and 59.7
- Lung [2, 9]: 82400 ng/g and 105600 ng/g
- Ratio (Lung/Plasma) [2, 9]: 69.2 and 130
- Lung [2, 10]: 102000 ng/g and 74400 ng/g
- Ratio (Lung/Plasma) [2, 10]: 96.2 and 108
- Lung [2, 11]: 48800 ng/g and 65200 ng/g
- Ratio (Lung/Plasma) [2, 11]: 215 and 97.6 and 73.2
- Lung [2, 12]: 6800 ng/g and 2928 ng/g and 7080 ng/g
- Ratio (Lung/Plasma) [2, 12]: 191 and 311
- plasma concentration ([2]; Compound P3 PO 30 mg/kg, 24 h, individual animals): BLOQ
- Lung ([2]; Compound P3 PO 30 mg/kg, 24 h, individual animals, 30 mg/kg): 38.2 ng/g and 22.6 ng/g and 11.1 ng/g
- amount of active metabolite in lung tissue relative to plasma concentration [2, 13]: significantly higher amount of active metabolite in lung tissue
- overall concentration of active metabolite [2, 13]: provided a higher overall concentration of active metabolite
- concentration at 0.083 h ([2]; male, hamster, in vivo, iv, 3 mg/kg, Lung (ng/g), Compound P3 IV 3 mg/kg, 0.083 h, individual animals): 27400 ng/g
- concentration at 8 h ([2]; male, hamster, in vivo, iv, 3 mg/kg, Lung (ng/g), Compound P3 IV 3 mg/kg, 8 h, individual animals): 270 ng/g
- Kp at 0.083 h ([2]; male, hamster, in vivo, iv, 3 mg/kg, Compound P3 IV 3 mg/kg, 0.083 h, individual animals): 34.1
- Kp at 4 h ([2]; male, hamster, in vivo, iv, 3 mg/kg, Compound P3 IV 3 mg/kg, 4 h, individual animals): 68.4
- Kp at 0.083 h ([2]; male, hamster, in vivo, iv, 3 mg/kg, Mean, Compound P3 IV 3 mg/kg, 0.083 h): 33.7
- Kp at 2 h ([2]; male, hamster, in vivo, iv, 3 mg/kg, Mean, Compound P3 IV 3 mg/kg, 2 h): 81
- Kp at 4 h ([2]; male, hamster, in vivo, iv, 3 mg/kg, Mean, Compound P3 IV 3 mg/kg, 4 h): 80
- Kp at 8 h ([2]; male, hamster, in vivo, iv, 3 mg/kg, Mean, Compound P3 IV 3 mg/kg, 8 h): 77
- concentration at 1 h ([2]; male, hamster, in vivo, po, 30 mg/kg, Lung (ng/g), Compound P3 PO 30 mg/kg, 1 h, individual animals): 106000 ng/g
- concentration at 2 h ([2]; male, hamster, in vivo, po, 30 mg/kg, Lung (ng/g), Compound P3 PO 30 mg/kg, 2 h, individual animals): 67600 ng/g
- concentration at 4 h ([2]; male, hamster, in vivo, po, 30 mg/kg, Lung (ng/g), Compound P3 PO 30 mg/kg, 4 h, individual animals): 65600 ng/g
- Kp at 0.5 h ([2]; male, hamster, in vivo, po, 30 mg/kg, Compound P3 PO 30 mg/kg, 0.5 h, individual animals): 89.1
- Kp at 1 h ([2]; male, hamster, in vivo, po, 30 mg/kg, Compound P3 PO 30 mg/kg, 1 h, individual animals): 98.1
- Kp at 2 h ([2]; male, hamster, in vivo, po, 30 mg/kg, Compound P3 PO 30 mg/kg, 2 h, individual animals): 88.6
- Kp at 8 h ([2]; male, hamster, in vivo, po, 30 mg/kg, Compound P3 PO 30 mg/kg, 8 h, individual animals): 194
- Kp at […] ([2]; male, hamster, in vivo, po, 30 mg/kg, Compound P3 PO 30 mg/kg, individual animals): 34.8
- Kp at 0.5 h ([2]; male, hamster, in vivo, po, 30 mg/kg, Mean, Compound P3 PO 30 mg/kg, 0.5 h): 67.4
- Kp at 1 h ([2]; male, hamster, in vivo, po, 30 mg/kg, Mean, Compound P3 PO 30 mg/kg, 1 h): 99
- Kp at 2 h ([2]; male, hamster, in vivo, po, 30 mg/kg, Mean, Compound P3 PO 30 mg/kg, 2 h): 98
- Kp at 4 h ([2]; male, hamster, in vivo, po, 30 mg/kg, Mean, Compound P3 PO 30 mg/kg, 4 h): 129
- Kp at 8 h ([2]; male, hamster, in vivo, po, 30 mg/kg, Mean, Compound P3 PO 30 mg/kg, 8 h): 232
- Kp at […] ([2]; male, hamster, in vivo, po, 30 mg/kg, Mean, Compound P3 PO 30 mg/kg): 32.3
- IC50 [3]: 4.05 µM
- Emax ([3]; read-out: Efficacy CPE assay): 40.7%
